Converted amounts (≈) assume the structure as drawn. The source made the active and inactive calls. The rule behind the calls is not given here.
Columns and labels:
Cell membrane [1] = test: Disruption of membrane integrity in Pseudomonas aeruginosa ATCC 27853 assessed as increase in PI positive cells at 16 ug/ml measured after 1 hr by SYTO9/PI staining based confocal laser scanning microscope analysis; type: subcellular; settings: dose 16.0 µg/ml
Acinetobacter baumannii [2] = test: Antibacterial activity against Acinetobacter baumannii ATCC 17978 assessed as bacterial growth inhibition incubated for 18 hrs by micro-dilution broth method; type: functional
Cell membrane [3] = test: Disruption of membrane integrity in Pseudomonas aeruginosa ATCC 27853 assessed as increase in PI uptake at 16 ug/ml measured every 15 mins for 6 hrs by SYTO9/PI staining based fluorometric analysis; settings: dose 16.0 µg/ml
Cell membrane [4] = test: Disruption of membrane integrity in Bacillus subtilis ATCC 6633 assessed as increase in PI uptake at 16 ug/ml measured after 15 mins by SYTO9/PI staining based fluorometric analysis; settings: dose 16.0 µg/ml
Klebsiella pneumoniae [5] = test: Antibacterial activity against pan drug-resistant Klebsiella pneumoniae S1-081Rb assessed as bacterial growth inhibition incubated for 18 hrs by CLSI based micro-dilution broth method; type: functional
[6] = Hemolytic activity against human RBC at 32 ug/ml incubated for 30 mins (reference value: 0%); type: toxicity, cell-based, Erythrocyte; settings: human red blood cells (erythrocytes), at 32 µg/mL, read-out: Activity
Cell membrane [7] = test: Disruption of membrane integrity in Escherichia coli MG1655 assessed as increase in PI uptake at 16 ug/ml measured every 15 mins for 6 hrs by SYTO9/PI staining based fluorometric analysis; settings: dose 16.0 µg/ml
Klebsiella pneumoniae [8] = test: Antibacterial activity against Klebsiella pneumoniae ATCC 13833 assessed as bacterial growth inhibition incubated for 18 hrs by micro-dilution broth method; type: functional
Staphylococcus aureus = test: Antibacterial activity against Staphylococcus aureus ATCC 25923 assessed as bacterial growth inhibition incubated for 18 hrs by micro-dilution broth method; type: functional
[9] = Hemolytic activity against human RBC at 2 ug/ml incubated for 30 mins (reference value: 0%); type: toxicity, cell-based, Erythrocyte; settings: human red blood cells (erythrocytes), at 2 µg/mL, read-out: Activity
Lipid bilayer [10] = test: Binding affinity to bacterial membrane mimic POPG large unilamellar vesicle assessed as bathochromic shift at 125 uM measured at t = 0 by UV-Vis spectrophotometric analysis
Acinetobacter baumannii [11] = test: Antibacterial activity against Acinetobacter baumannii AC-54/97 assessed as bacterial growth inhibition incubated for 18 hrs by CLSI based micro-dilution broth method; type: functional
[12] = Hemolytic activity against human RBC at 64 ug/ml incubated for 30 mins (reference value: 0%); type: toxicity, cell-based, Erythrocyte; settings: human red blood cells (erythrocytes), at 64 µg/mL, read-out: Activity
Cell membrane [13] = test: Disruption of membrane integrity in Enterococcus faecalis ATCC 19433 assessed as increase in PI uptake at 16 ug/ml measured after 1 hr by SYTO9/PI staining based fluorometric analysis; type: subcellular; settings: dose 16.0 µg/ml
[14] = Apparent permeability of the compound across bacterial inner membrane mimic PC-phospholipids in PBS buffer at pH 7.4 incubated for 5 hrs by PAMPA based UV-Vis spectrophotometric analysis; type: ADME
Cell membrane [15] = test: Disruption of membrane integrity in Enterococcus faecalis ATCC 19433 assessed as increase in PI uptake at 16 ug/ml measured after 15 mins by SYTO9/PI staining based fluorometric analysis; settings: dose 16.0 µg/ml
Cell membrane [16] = test: Disruption of membrane integrity in Acinetobacter baumannii ATCC 17978 assessed as increase in PI positive cells at 16 ug/ml measured after 1 hr by SYTO9/PI staining based confocal laser scanning microscope analysis; settings: dose 16.0 µg/ml
Cell membrane [17] = test: Disruption of membrane integrity in Escherichia coli MG1655 assessed as increase in PI uptake at 16 ug/ml measured after 1 hr by SYTO9/PI staining based fluorometric analysis; type: subcellular; settings: dose 16.0 µg/ml
[18] = Hemolytic activity against human RBC at 1 ug/ml incubated for 30 mins (reference value: 0%); type: toxicity, cell-based, Erythrocyte; settings: human red blood cells (erythrocytes), at 1 µg/mL, read-out: Activity
Cell membrane [19] = test: Disruption of membrane integrity in Acinetobacter baumannii ATCC 17978 assessed as increase in PI uptake at 16 ug/ml measured after 15 mins by SYTO9/PI staining based fluorometric analysis; settings: dose 16.0 µg/ml
Enterobacter cloacae = test: Antibacterial activity against Enterobacter cloacae VA-417/02 assessed as bacterial growth inhibition incubated for 18 hrs by CLSI based micro-dilution broth method; type: functional
[20] = Hemolytic activity against human RBC at 4 ug/ml incubated for 30 mins (reference value: 0%); type: toxicity, cell-based, Erythrocyte; settings: human red blood cells (erythrocytes), at 4 µg/mL, read-out: Activity
Cell membrane [21] = test: Disruption of membrane integrity in Pseudomonas aeruginosa ATCC 27853 assessed as increase in PI uptake at 16 ug/ml measured after 1 hr by SYTO9/PI staining based fluorometric analysis; type: subcellular; settings: dose 16.0 µg/ml
Cell membrane [22] = test: Disruption of membrane integrity in Bacillus subtilis ATCC 6633 assessed as increase in PI uptake at 16 ug/ml measured after 1 hr by SYTO9/PI staining based fluorometric analysis; type: subcellular; settings: dose 16.0 µg/ml
Enterococcus faecalis = test: Antibacterial activity against Enterococcus faecalis ATCC 19433 assessed as bacterial growth inhibition incubated for 18 hrs by micro-dilution broth method; type: functional
[23] = Hemolytic activity against human RBC at 16 ug/ml incubated for 30 mins relative to control; type: toxicity, cell-based, Erythrocyte; settings: human red blood cells (erythrocytes), at 16 µg/mL, read-out: Activity
Cell membrane [24] = test: Disruption of membrane integrity in Escherichia coli MG1655 assessed as increase in PI positive cells at 16 ug/ml measured after 1 hr by SYTO9/PI staining based confocal laser scanning microscope analysis; type: subcellular; settings: dose 16.0 µg/ml
[25] = Apparent permeability of the compound across bacterial inner membrane mimic POPE/POPG (6:4) in PBS buffer at pH 7.4 incubated for 5 hrs by PAMPA based UV-Vis spectrophotometric analysis; type: ADME
Lipid bilayer [26] = test: Binding affinity to bacterial membrane mimic POPG large unilamellar vesicle assessed as hyperchromic shift at 125 uM measured after 1 hr by UV-Vis spectrophotometric analysis
Cell membrane [27] = test: Disruption of membrane integrity in Staphylococcus aureus ATCC 25923 assessed as increase in PI positive cells at 16 ug/ml measured after 1 hr by SYTO9/PI staining based confocal laser scanning microscope analysis; type: subcellular; settings: dose 16.0 µg/ml
Cell membrane [28] = test: Disruption of membrane integrity in Acinetobacter baumannii ATCC 17978 assessed as increase in PI uptake at 16 ug/ml measured after 1 hr by SYTO9/PI staining based fluorometric analysis; type: subcellular; settings: dose 16.0 µg/ml
Streptococcus pyogenes = test: Antibacterial activity against Streptococcus pyogenes ATCC 12344 assessed as bacterial growth inhibition incubated for 18 hrs by micro-dilution broth method; type: functional
[29] = Apparent permeability of the compound across bacterial inner membrane mimic POPE/POPG (6:4) in PBS buffer assessed as membrane retention at pH 7.4 incubated for 5 hrs by PAMPA based UV-Vis spectrophotometric analysis; type: ADME, cell membranes; settings: pH 7.4, 5 h
Bacillus subtilis = test: Antibacterial activity against Bacillus subtilis ATCC 6633 assessed as bacterial growth inhibition incubated for 18 hrs by CLSI based micro-dilution broth method; type: functional

CCCCCCCCN(CCCCCCCCNC(=N)NCC1CC1)C(=O)N(CCCCCCNC(=N)NCC1CC1)CCCCCCNC(=N)NCC1CC1
Activity (Cell membrane [1]): Active | MIC (Acinetobacter baumannii [2]): 16 µg/mL (≈ 20.3 µM) | Activity (Cell membrane [3]): Active | Activity (Cell membrane [4]): Active | MBC (Klebsiella pneumoniae [5]): 8 µg/mL (≈ 10.2 µM) | MIC (Klebsiella pneumoniae [5]): 8 µg/mL (≈ 10.2 µM) | hemolysis at 0.5 h, 32 ug/ml [6]: 8.4% | Activity (Cell membrane [7]): Active | MIC (Klebsiella pneumoniae [8]): 4 µg/mL (≈ 5.09 µM) | MIC (Staphylococcus aureus): 2 µg/mL (≈ 2.54 µM) | hemolysis at 0.5 h, 2 ug/ml [9]: 0% | Activity (Lipid bilayer [10]): Active | MBC (Acinetobacter baumannii [11]): 8 µg/mL (≈ 10.2 µM) | MIC (Acinetobacter baumannii [11]): 8 µg/mL (≈ 10.2 µM) | hemolysis at 0.5 h, 64 ug/ml [12]: 46.4% | Activity (Cell membrane [13]): Active | Papp at 5 h [14]: 4.79 ×10⁻⁶ cm/s | Activity (Cell membrane [15]): Active | Activity (Cell membrane [16]): Active | Activity (Cell membrane [17]): Active | hemolysis at 0.5 h, 1 ug/ml [18]: 0% | Activity (Cell membrane [19]): Active | MBC (Enterobacter cloacae): 8 µg/mL (≈ 10.2 µM) | MIC (Enterobacter cloacae): 8 µg/mL (≈ 10.2 µM) | hemolysis at 0.5 h, 4 ug/ml [20]: 0.5% | Activity (Cell membrane [21]): Active | Activity (Cell membrane [22]): Active | MIC (Enterococcus faecalis): 0.5 µg/mL (≈ 0.636 µM) | hemolysis at 0.5 h, 16 ug/ml [23]: 2.4% | Activity (Cell membrane [24]): Active | Papp at 5 h [25]: 0.13 ×10⁻⁶ cm/s | Activity (Lipid bilayer [26]): Active | Activity (Cell membrane [27]): Active | Activity (Cell membrane [28]): Active | MIC (Streptococcus pyogenes): 1 µg/mL (≈ 1.27 µM) | R% [29]: 65.2% | MIC (Bacillus subtilis): 0.5 µg/mL (≈ 0.636 µM)

N=C(NCCCCCCCCNC(N)=O)NCC1CC1.O=C(O)C(F)(F)F
Activity (Cell membrane [1]): Active | MIC (Acinetobacter baumannii [2]): 16 µg/mL | Activity (Cell membrane [3]): Active | Activity (Cell membrane [4]): Active | MBC (Klebsiella pneumoniae [5]): 4 µg/mL | MIC (Klebsiella pneumoniae [5]): 4 µg/mL | hemolysis at 0.5 h, 32 ug/ml [6]: 0% | Activity (Cell membrane [7]): Active | MIC (Klebsiella pneumoniae [8]): 1 µg/mL | MIC (Staphylococcus aureus): 1 µg/mL | hemolysis at 0.5 h, 2 ug/ml [9]: 0% | Activity (Lipid bilayer [10]): Active | MBC (Acinetobacter baumannii [11]): 16 µg/mL | MIC (Acinetobacter baumannii [11]): 16 µg/mL | hemolysis at 0.5 h, 64 ug/ml [12]: 0% | Activity (Cell membrane [13]): Active | Papp at 5 h [14]: 3.17 ×10⁻⁶ cm/s | Activity (Cell membrane [15]): Active | Activity (Cell membrane [16]): Active | Activity (Cell membrane [17]): Active | hemolysis at 0.5 h, 1 ug/ml [18]: 0% | Activity (Cell membrane [19]): Active | MBC (Enterobacter cloacae): 8 µg/mL | MIC (Enterobacter cloacae): 4 µg/mL | hemolysis at 0.5 h, 4 ug/ml [20]: 0% | Activity (Cell membrane [21]): Active | Activity (Cell membrane [22]): Active | MIC (Enterococcus faecalis): 1 µg/mL | hemolysis at 0.5 h, 16 ug/ml [23]: 0% | Activity (Cell membrane [24]): Active | Papp at 5 h [25]: 3.48 ×10⁻⁶ cm/s | Activity (Lipid bilayer [26]): Active | Activity (Cell membrane [27]): Active | Activity (Cell membrane [28]): Active | MIC (Streptococcus pyogenes): 0.5 µg/mL | R% [29]: 3.2% | MIC (Bacillus subtilis): 1 µg/mL

N=C(N)NCCCCCCCCN(CCCCCCCCNC(=N)NCC1CC1)C(=O)N(CCCCCCCCNC(=N)NCC1CC1)CCCCCCCCNC(=N)NCC1CC1.O=C(O)C(F)(F)F
Activity (Cell membrane [1]): Active | MIC (Acinetobacter baumannii [2]): 4 µg/mL | Activity (Cell membrane [3]): Active | Activity (Cell membrane [4]): Active | MBC (Klebsiella pneumoniae [5]): 2 µg/mL | MIC (Klebsiella pneumoniae [5]): 2 µg/mL | hemolysis at 0.5 h, 32 ug/ml [6]: 3.3% | Activity (Cell membrane [7]): Active | MIC (Klebsiella pneumoniae [8]): 1 µg/mL | MIC (Staphylococcus aureus): 0.5 µg/mL | hemolysis at 0.5 h, 2 ug/ml [9]: 0% | Activity (Lipid bilayer [10]): Active | MBC (Acinetobacter baumannii [11]): 8 µg/mL | MIC (Acinetobacter baumannii [11]): 8 µg/mL | hemolysis at 0.5 h, 64 ug/ml [12]: 8.1% | Activity (Cell membrane [13]): Active | Papp at 5 h [14]: 1.85 ×10⁻⁶ cm/s | Activity (Cell membrane [15]): Active | Activity (Cell membrane [16]): Active | Activity (Cell membrane [17]): Active | hemolysis at 0.5 h, 1 ug/ml [18]: 0% | Activity (Cell membrane [19]): Active | MBC (Enterobacter cloacae): 2 µg/mL | MIC (Enterobacter cloacae): 2 µg/mL | hemolysis at 0.5 h, 4 ug/ml [20]: 0% | Activity (Cell membrane [21]): Active | Activity (Cell membrane [22]): Active | MIC (Enterococcus faecalis): 1 µg/mL | hemolysis at 0.5 h, 16 ug/ml [23]: 1.1% | Activity (Cell membrane [24]): Active | Papp at 5 h [25]: 0.3 ×10⁻⁶ cm/s | Activity (Lipid bilayer [26]): Active | Activity (Cell membrane [27]): Active | Activity (Cell membrane [28]): Active | MIC (Streptococcus pyogenes): 0.25 µg/mL | R% [29]: 40.8% | MIC (Bacillus subtilis): 0.5 µg/mL
